In PMC3206071, “Characterization of a Truncated Metabotropic Glutamate Receptor in a Primitive Metazoan, the Parasitic Flatworm Schistosoma mansoni” (PLoS ONE, 2011):

Tests used:
[1] = target: T1, SmGBP (S. mansoni glutamate-binding protein) (Schistosoma mansoni, UniProt E2IFW0); test: [3H]glutamate radioligand competition at […], purified SmGBP-His
[2] = target: T1, SmGBP (S. mansoni glutamate-binding protein); test: as above; settings: read-out: % inhibition at 10 mM
[3] = target: T1, SmGBP (S. mansoni glutamate-binding protein); test: [3H]glutamate radioligand competition with unlabelled glutamate, PEG precipitation, purified SmGBP-His

T1 sequence (E2IFW0 entry or part of it): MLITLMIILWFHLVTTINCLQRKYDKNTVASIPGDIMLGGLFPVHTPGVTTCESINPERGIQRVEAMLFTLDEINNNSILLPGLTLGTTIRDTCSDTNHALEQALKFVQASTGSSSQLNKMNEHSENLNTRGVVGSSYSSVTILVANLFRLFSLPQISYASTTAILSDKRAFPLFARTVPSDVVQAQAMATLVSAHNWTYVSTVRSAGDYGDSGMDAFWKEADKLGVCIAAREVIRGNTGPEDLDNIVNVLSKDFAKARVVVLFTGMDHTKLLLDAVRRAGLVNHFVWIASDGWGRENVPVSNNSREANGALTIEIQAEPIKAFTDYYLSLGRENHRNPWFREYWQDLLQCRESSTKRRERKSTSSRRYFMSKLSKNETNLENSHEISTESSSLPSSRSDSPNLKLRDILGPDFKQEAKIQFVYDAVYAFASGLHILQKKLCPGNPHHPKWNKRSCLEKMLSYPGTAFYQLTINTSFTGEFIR

SMILES: N[C@H](C(=O)O)c1cc(O)cc(O)c1 [(S)-3,5-DHPG, (S)-3,5-Dihydroxyphenylglycine]
- [3H]glutamate radioligand competition at 10 mM, purified SmGBP-His [1]: also recognized some glutamatergic agents, for example, agonists DHPG and AP4 and the antagonist, MCPG

SMILES: C[C@@](N)(C(=O)O)c1ccc(C(=O)O)cc1 [(S)-MCPG, (S)-a-Methyl-4-carboxyphenylglycine]
- [3H]glutamate radioligand competition at 10 mM, purified SmGBP-His [1]: able to compete with [^3H]glutamate, AP4 (mGluR III agonist) and S)-MCPG (mGluRs I/II antagonist) being the strongest

SMILES: N[C@@H](CCP(=O)(O)O)C(=O)O [L-AP4, L-(+)-2-Amino-4-phosphonobutyric acid]
- [3H]glutamate radioligand competition at 10 mM, purified SmGBP-His [1]: able to compete with [^3H]glutamate, AP4 (mGluR III agonist) and S)-MCPG (mGluRs I/II antagonist) being the strongest

SMILES: N[C@@H](CC(=O)O)C(=O)O [aspartate]
- inhibition at 10000 µM [2]: 84%

SMILES: N[C@@H](CCC(=O)O)C(=O)O [glutamate]
- IC50 [3]: 300 ± 50 nM

SMILES: NC(=O)CC[C@H](N)C(=O)O [glutamine]
- inhibition at 10000 µM [2]: 77%
